SMILES strings stand for the structures.

In the assay the test system is HBeAg (surrogate marker for cccDNA) in HepDES19 cells. Briefly: Engineered HepDES19 primary screen assay (HBeAg ELISA). In kind it is cell-based, HBV. The conditions noted are these: Hepatitis B virus, 120 h, HBeAg in culture supernatant, 5 days incubation, read-out: IC50 (HepDES19 primary screen assay, inhibition of extracellular HBeAg level). The text has this:
The assay was employed to screen for cccDNA inhibitors. HepDES19 is a cccDNA-producing cell line. In this cell line, HBeAg in the cell culture supernatant as surrogate marker, as HBeAg production depends on cccDNA level and activity. HepDES19 is an engineered cell line which contains a 1.1 unit length HBV genome, and pgRNA transcription from the transgene is controlled by Tetracycline (Tet). In the absence of Tet, pgRNA transcription will be induced, but HBV e antigen (HBeAg) could not be produced from this pgRNA due to very short leader sequence before the HBeAg start codon and the start codon is disrupted. Only after cccDNA is formed, the missing leader sequence and start codon mutation would be restored from the 3′-terminal redundancy of pgRNA, and then HBeAg could be synthesized. Therefore, HBeAg could be used as a surrogate marker for cccDNA (Zhou, T. et al., Antiviral Res. (2006), 72(2), 116-124; Guo, H. et al., J. Virol. (2007), 81(22), 12472-12484).
HepDES19 cells were seeded at 2×10^6 cells per T150 flask and cultured with the culture medium (Dulbecco's Modified Eagle Medium: Nutrient Mixture F-12 [DMEM-F12, Gibco Cat. 11320-82], 10% Fetal Bovine Serum [FBS, Clontech Cat. 631101], 0.1 mM Non-Essential Amino Acids Solution [NEAA, Gibco Cat. 11140-050], 50 μg/mL Penicillin-Streptomycin [PS, Invitrogen Cat. 15140-163], 500 μg/mL Geneticin [G418, Invitrogen Cat. 10131-027]) containing 3 μg/mL Tet (Sigma, Cat. 87128) for 5 days. Cells were then seeded at 4×10^6 cells per T150 in the same culture medium as described above in the absence of Tet for 8 days. Cells were then harvested and frozen at density of 2×10^6 cells per mL. For compound testing, the frozen cells were thawed and seeded into 96-well plates at a density of 6×10^4 cells per well. At 24 hours after seeding, half log serial dilutions of compounds made with Dimethyl sulfoxide (DMSO, Sigma, Cat. D2650) were further diluted with the same culture medium as described above before they were added to the cells to reach desired final compound concentrations and 1% DMSO concentration. Plates were then incubated at 37° C. for another 5 days before measurement of HBeAg level and cell viability. Intracellular HBeAg level were measured with enzyme-linked immunosorbent assay (ELISA) kit (Shanghai Kehua Diagnostic Medical Products Co., Ltd). Cell viability was assessed using Cell Counting Kit-8 (DonJindo, Cat. CK04-20). IC50 values were derived from the dose-response curve using 4 parameter logistic curve fit method.
The compounds of the present invention were tested for their capacity to inhibit extracellular HBeAg level as described herein.
With `O=C(O)[C@@H]1C[C@H](NCCCOc2cc(Br)ccc2-c2cc(=O)c3cccc(Cl)c3o2)CCO1` (relative stereo) [Example 060, cis-4-[3-[5-bromo-2-(8-chloro-4-oxo-chromen-2-yl)phenoxy]propylamino]tetrahydropyran-2-carboxylic acid], the IC50 (commonly the concentration that gives 50% inhibition) was found to be 4.87 µM.

Take `O=C(O)[C@H]1CCCN1CCCOc1cc(Br)ccc1-c1cc(=O)c2cccc(Cl)c2o1` [Example 003, (2R)-1-[3-[5-bromo-2-(8-chloro-4-oxo-chromen-2-yl)phenoxy]propyl]pyrrolidine-2-carboxylic acid]: the half-maximal inhibitory concentration (IC50) was determined as 2.41 µM.

As for `O=C(O)[C@@H]1CCCN1CCCOc1cc(Br)ccc1-c1cc(=O)c2cccc(Cl)c2o1` [Example 004, (2S)-1-[3-[5-bromo-2-(8-chloro-4-oxo-chromen-2-yl)phenoxy]propyl]pyrrolidine-2-carboxylic acid], the concentration for half-maximal inhibition (IC50) was found to be 2.02 µM.

`O=C(O)CC1CCN(CCCOc2cc(C(F)(F)F)ccc2-c2cc(=O)c3cccc(Cl)c3o2)C1` (stereo not shown) [Example 008, 2-[1-[3-[2-(8-chloro-4-oxo-chromen-2-yl)-5-(trifluoromethyl)phenoxy]propyl]pyrrolidin-3-yl]acetic acid]: the concentration for half-maximal inhibition (IC50) stood at 0.17 µM.

Take `CC(C)[C@@H](NCCCOc1cc(C(F)(F)F)ccc1-c1cc(=O)c2cccc(Cl)c2o1)C(=O)O` [Example 009, (2R)-2-[3-[2-(8-chloro-4-oxo-chromen-2-yl)-5-(trifluoromethyl)phenoxy]propylamino]-3-methyl-butanoic acid]: the IC50 was determined as 7.47 µM.

On to `O=C(O)C(=O)NCC1(COc2cc(C(F)(F)F)ccc2-c2cc(=O)c3cccc(Cl)c3o2)COC1` [Example 010, 2-[[3-[[2-(8-chloro-4-oxo-chromen-2-yl)-5-(trifluoromethyl)phenoxy]methyl]oxetan-3-yl]methylamino]-2-oxo-acetic acid], for which the 50% inhibitory concentration (IC50) turned out to be 0.22 µM.

Regarding `CC(C)(C)CC(NCCCOc1cc(C(F)(F)F)ccc1-c1cc(=O)c2cccc(Cl)c2o1)C(=O)O` (stereo not shown) [Example 011, 2-[3-[2-(8-chloro-4-oxo-chromen-2-yl)-5-(trifluoromethyl)phenoxy]propylamino]-4,4-dimethyl-pentanoic acid], the IC50 is 3.61 µM.

As to `O=C(O)C1CCN(CCCOc2cc(C(F)(F)F)ccc2-c2cc(=O)c3cccc(Cl)c3o2)C1` (stereo not shown) [Example 012, 1-[3-[2-(8-chloro-4-oxo-chromen-2-yl)-5-(trifluoromethyl)phenoxy]propyl]pyrrolidine-3-carboxylic acid], the IC50 came to 0.11 µM.

`O=C(O)C1CCN(CCOc2cc(Br)ccc2-c2cc(=O)c3cccc(Cl)c3o2)C1` (stereo not shown) [Example 021, 1-[2-[5-bromo-2-(8-chloro-4-oxo-chromen-2-yl)phenoxy]ethyl]pyrrolidine-3-carboxylic acid]: the half-maximal inhibitory concentration (IC50) is 0.18 µM.

In the case of `C[C@@H]1CN(CCOc2cc(Br)ccc2-c2cc(=O)c3cccc(Cl)c3o2)C[C@H]1C(=O)O` [Example 024, (3S,4S)-1-[2-[5-bromo-2-(8-chloro-4-oxo-chromen-2-yl)phenoxy]ethyl]-4-methyl-pyrrolidine-3-carboxylic acid], the IC50 turned out to be 1.04 µM.

For the compound `O=C(O)C12CC(NCCOc3cc(Br)ccc3-c3cc(=O)c4cccc(Cl)c4o3)(C1)C2` [Example 026, 3-[2-[5-bromo-2-(8-chloro-4-oxo-chromen-2-yl)phenoxy]ethylamino]bicyclo[1.1.1]pentane-1-carboxylic acid], the IC50 amounted to 0.46 µM.

As to `O=C(O)C1CCN(CCOc2ccccc2-c2cc(=O)c3cccc(Cl)c3o2)CC1` [Example 029, 1-[2-[2-(8-chloro-4-oxo-chromen-2-yl)phenoxy]ethyl]piperidine-4-carboxylic acid], the half-inhibitory concentration (IC50) came out at 1.85 µM.

Turning to `O=C(O)[C@H]1CCCN1CCOc1ccccc1-c1cc(=O)c2cccc(Cl)c2o1` [Example 030, (2R)-1-[2-[2-(8-chloro-4-oxo-chromen-2-yl)phenoxy]ethyl]pyrrolidine-2-carboxylic acid], the IC50 worked out at 1.33 µM.

As to `O=C(O)C1CCN(CCOc2ccccc2-c2cc(=O)c3cccc(Cl)c3o2)C1` (stereo not shown) [Example 031, 1-[2-[2-(8-chloro-4-oxo-chromen-2-yl)phenoxy]ethyl]pyrrolidine-3-carboxylic acid], the 50% inhibitory concentration (IC50) amounted to 0.17 µM.

Turning to `O=C(O)[C@@H]1CCCN1CCOc1ccccc1-c1cc(=O)c2cccc(Cl)c2o1` [Example 032, (2S)-1-[2-[2-(8-chloro-4-oxo-chromen-2-yl)phenoxy]ethyl]pyrrolidine-2-carboxylic acid], the IC50 turned out to be 0.65 µM.

`O=C(O)C1CN(CCOc2ccccc2-c2cc(=O)c3cccc(Cl)c3o2)C1` [Example 033, 1-[2-[2-(8-chloro-4-oxo-chromen-2-yl)phenoxy]ethyl]azetidine-3-carboxylic acid]: the 50% inhibitory concentration (IC50) stood at 1.09 µM.

For the compound `O=C(O)[C@H]1CCN(CCOc2cc(C(F)(F)F)ccc2-c2cc(=O)c3cccc(Cl)c3o2)C1` [Example 034, (3S)-1-[2-[2-(8-chloro-4-oxo-chromen-2-yl)-5-(trifluoromethyl)phenoxy]ethyl]pyrrolidine-3-carboxylic acid], the IC50 came to 1.12 µM.

As to `O=C(O)C1CN(CCOc2cc(C(F)(F)F)ccc2-c2cc(=O)c3cccc(Cl)c3o2)CCO1` (stereo not shown) [Example 035, 4-[2-[2-(8-chloro-4-oxo-chromen-2-yl)-5-(trifluoromethyl)phenoxy]ethyl]morpholine-2-carboxylic acid], the 50% inhibitory concentration (IC50) came out at 2.38 µM.

As to `CC(C)[C@@H](NCCOc1cc(C(F)(F)F)ccc1-c1cc(=O)c2cccc(Cl)c2o1)C(=O)O` [Example 036, (2R)-2-[2-[2-(8-chloro-4-oxo-chromen-2-yl)-5-(trifluoromethyl)phenoxy]ethylamino]-3-methyl-butanoic acid], the IC50 stood at 2.03 µM.

Take `CC(C)[C@H](NCCOc1cc(C(F)(F)F)ccc1-c1cc(=O)c2cccc(Cl)c2o1)C(=O)O` [Example 037, (2S)-2-[2-[2-(8-chloro-4-oxo-chromen-2-yl)-5-(trifluoromethyl)phenoxy]ethylamino]-3-methyl-butanoic acid]: the IC50 was found to be 4.12 µM.

With `O=C(O)C1CC(NCCOc2cc(C(F)(F)F)ccc2-c2cc(=O)c3cccc(Cl)c3o2)C1` (stereo not shown) [Example 038, 3-[2-[2-(8-chloro-4-oxo-chromen-2-yl)-5-(trifluoromethyl)phenoxy]ethylamino]cyclobutanecarboxylic acid], the half-inhibitory concentration (IC50) came to 7.24 µM.

For `CC(C)COc1ccc(-c2cc(=O)c3cccc(Cl)c3o2)c(OCCN2CC[C@@H](C(=O)O)C2)c1` [Example 039, (3R)-1-[2-[2-(8-chloro-4-oxo-chromen-2-yl)-5-isobutoxy-phenoxy]ethyl]pyrrolidine-3-carboxylic acid], the 50% inhibitory concentration (IC50) worked out at 3.48 µM.

With `CC(C)COc1ccc(-c2cc(=O)c3cccc(Cl)c3o2)c(OCCN2CC[C@H](C(=O)O)C2)c1` [Example 040, (3S)-1-[2-[2-(8-chloro-4-oxo-chromen-2-yl)-5-isobutoxy-phenoxy]ethyl]pyrrolidine-3-carboxylic acid], the IC50 is 9.06 µM.

For `O=C(O)C1CCN(CCOc2ccccc2-c2cc(=O)c3cc(F)cc(Cl)c3o2)C1` (stereo not shown) [Example 043, 1-[2-[2-(8-chloro-6-fluoro-4-oxo-chromen-2-yl)phenoxy]ethyl]pyrrolidine-3-carboxylic acid], the IC50 stood at 1.42 µM.

With `Cc1cc(-c2cc(=O)c3cccc(Cl)c3o2)c(OCCN2CCC[C@@H]2C(=O)O)cc1Br` [Example 044, (2R)-1-[2-[5-bromo-2-(8-chloro-4-oxo-chromen-2-yl)-4-methyl-phenoxy]ethyl]pyrrolidine-2-carboxylic acid], the IC50 turned out to be 4.75 µM.

Consider `Cc1cc(-c2cc(=O)c3cccc(Cl)c3o2)c(OCCN2CCC[C@H]2C(=O)O)cc1Cl` [Example 045], for which the IC50 turned out to be 6.5 µM.

For the compound `Cc1cc(-c2cc(=O)c3cccc(Cl)c3o2)c(OCCCNC2CC(C(=O)O)C2)cc1Cl` (stereo not shown) [Example 046, 3-[3-[5-chloro-2-(8-chloro-4-oxo-chromen-2-yl)-4-methyl-phenoxy]propylamino]cyclobutanecarboxylic acid], the IC50 turned out to be 4.37 µM.

`Cc1cc(-c2cc(=O)c3cccc(Cl)c3o2)c(OCCOCCN2CCC[C@@H]2C(=O)O)cc1Br` [Example 048, (2R)-1-[2-[2-[5-bromo-2-(8-chloro-4-oxo-chromen-2-yl)-4-methyl-phenoxy]ethoxy]ethyl]pyrrolidine-2-carboxylic acid]: the IC50 came to 6.68 µM.

(Values after patent US20220169639A1 (priority 2018, published 2022).)
